Experimental data reported in PMC6137088, “The Role of Outer Membrane Proteins and Lipopolysaccharides for the Sensitivity of Escherichia coli to Antimicrobial Peptides” (Frontiers in Microbiology, 2018).
Where no end group is shown, it is not given here.

Assays:
S. typhimurium LT2 = assay: MIC testing (CLSI broth microdilution); assay type: cell-based; details: Table 6, triplicates
Description: (§1) The minimum inhibitory concentrations (MICs) of the AMPs were measured in 96-well microtiter plates according the Clinical and Laboratory Standards Institute [CLSI, formerly National Committee for Clinical Laboratory Standards (NCCLS)] (Wikler et al., [2009]). Liquid Mueller-Hinton-II medium containing increasing concentrations of AMPs is inoculated with a defined number of cells (~10^5 CFUs/ml) in 96-well microtiter plates (polypropylene). Each microtiter plate includes a positive growth control and a negative control (sterile control). After incubation, the minimal inhibitory concentration (MIC) is determined by the lowest concentration showing no visible growth. All plates were incubated for 16–20 h.

Y. ruckeri 392/2003 = assay: MIC testing (CLSI broth microdilution); assay type: cell-based; details: Table 6, triplicates
Description: as §1

E. coli ATCC25922 = assay type: cell-based, Escherichia coli; details: Table 6; E. coli ATCC25922 wild-type; triplicates
From the text: (§2) The E. coli strains 470, F632, F653 and F2513 were kindly provided by Prof. H. Brade and Prof. S. Muller-Loennies, Research Center Borstel, Leipniz-Center for Medicine and Biosciences, Germany. E. coli BW25113 (CGSC#:7636), a derivative of F^−, λ^− E. coli K12 strain BD792 is the wild-type strain which was used in the generation of the KEIO collection and ordered from the Coli Genetic Stock Centre (CGSC, Yale University). E. coli JW3596, E. coli JW3024, E. coli JW3595, E. coli JW3606, E. coli JW0212, E. coli JW1667, E. coli JW0554, E. coli JW3605 and E. coli JW3600 are isogenic mutants of waaC, waaE, waaF, waaG, gmhA (lpcA), lpp, ompT, waaP, or waaY derived from the parental strain E. coli BW25113 and were ordered from the KEIO collection (Baba et al., [2006]). E. coli ATCC25922 is a clinical isolate, serotype O6, often used as control strain in antimicrobial susceptibility testing was ordered from the ATCC strain collection. All strains were grown in Mueller-Hinton-II medium and incubation took place aerobically at 37°C for 18–20 h.
as §1

E. coli ATCC25922 ΔwaaG = assay type: cell-based, Escherichia coli; details: Table 6, triplicates
From the text: as §2, §1

E. coli ATCC25922 ΔwaaC = assay type: cell-based, Escherichia coli; details: Table 6, triplicates
From the text: as §2, §1

E. coli ATCC25922 ΔwaaE = assay type: cell-based, Escherichia coli; details: Table 6, triplicates
From the text: as §2, §1

E. coli ATCC25922 ΔwaaF = assay type: cell-based, Escherichia coli; details: Table 6, triplicates
From the text: as §2, §1

[1] = tested on: E. coli BW25113 gmhA::kan; assay type: cell-based, Escherichia coli; details: Table 3; BW25113 gmhA::kan; Mueller-Hinton-II, 16–20 h; duplicates (*) or triplicates
From the text: as §2, §1

E. coli BW25113 = assay type: cell-based, Escherichia coli; details: Table 3; E. coli BW25113 wild type; Mueller-Hinton-II, ~10^5 CFUs/ml, 16–20 h; duplicates (*) or triplicates
From the text: as §2, §1

[2] = tested on: E. coli BW25113 waaG::kan; assay type: cell-based, Escherichia coli; details: Table 3; BW25113 waaG::kan; Mueller-Hinton-II, 16–20 h; duplicates (*) or triplicates
From the text: as §2, §1

E. coli F470 (R1) = assay type: cell-based, Escherichia coli; details: Table 4; E. coli F470 (R1 prototype, rough LPS); triplicates
From the text: as §2, §1

E. coli F2513 (R4) = assay type: cell-based, Escherichia coli; details: Table 4; E. coli F2513 (R4 prototype, rough LPS); triplicates
From the text: as §2, §1

[3] = tested on: E. coli BW25113 waaE::kan; assay type: cell-based, Escherichia coli; details: Table 3; BW25113 waaE::kan; Mueller-Hinton-II, 16–20 h; duplicates (*) or triplicates
From the text: as §2, §1

[4] = tested on: E. coli BW25113 ompT::kan; assay type: cell-based, Escherichia coli; details: Table 3; BW25113 ompT::kan; Mueller-Hinton-II, 16–20 h; duplicates (*) or triplicates
From the text: as §2, §1

E. coli F653 (R3) = assay type: cell-based, Escherichia coli; details: Table 4; E. coli F653 (R3 prototype, rough LPS); triplicates
From the text: as §2, §1

[5] = tested on: E. coli BW25113 waaF::kan; assay type: cell-based, Escherichia coli; details: Table 3; BW25113 waaF::kan; Mueller-Hinton-II, 16–20 h; duplicates (*) or triplicates
From the text: as §2, §1

E. coli F632 (R2) = assay type: cell-based, Escherichia coli; details: Table 4; E. coli F632 (R2 prototype, rough LPS); triplicates
From the text: as §2, §1

[6] = tested on: E. coli BW25113 waaC::kan; assay type: cell-based, Escherichia coli; details: Table 3; BW25113 waaC::kan; Mueller-Hinton-II, 16–20 h; duplicates (*) or triplicates
From the text: as §2, §1

Sequence	Antimicrobial activity: MIC (S. typhimurium LT2) [µg/mL]	Antimicrobial activity: MIC (Y. ruckeri 392/2003) [µg/mL]	Antimicrobial activity: MIC (E. coli ATCC25922) [µg/mL]	Antimicrobial activity: MIC (E. coli ATCC25922 ΔwaaG) [µg/mL]	Antimicrobial activity: MIC (E. coli ATCC25922 ΔwaaC) [µg/mL]	Antimicrobial activity: MIC (E. coli ATCC25922 ΔwaaE) [µg/mL]	Antimicrobial activity: MIC (E. coli ATCC25922 ΔwaaF) [µg/mL]	MIC [1]	MIC (E. coli BW25113) [µg/mL]	MIC [2] [µg/mL]	Antimicrobial activity (MIC) (E. coli F470 (R1)) [µg/mL]	Antimicrobial activity (MIC) (E. coli F2513 (R4)) [µg/mL]	MIC [3] [µg/mL]	MIC [4]	Antimicrobial activity (MIC) (E. coli F653 (R3)) [µg/mL]	MIC [5] [µg/mL]	Antimicrobial activity (MIC) (E. coli F632 (R2)) [µg/mL]	MIC [6] [µg/mL]
GLRKRLRKFRNKDKEKLKKIGQKIQGLLPKLAPRTDY [I13D]	≥64	≥64	≥64	≥64	≥64	≥64	≥64	–	–	–	–	–	–	–	–	–	–	–
GLRKRLRKFRNKFKEKLKKIGQKIQGLLPKLAPRTDY [I13F]	4	2	4	2	2	2	2	–	–	–	–	–	–	–	–	–	–	–
GLRKRLRKFRNKHKEKLKKIGQKIQGLLPKLAPRTDY [I13H]	4	8 to 16	4	2	2	2	2	–	–	–	–	–	–	–	–	–	–	–
GLRKRLRKFRNKIKECLKKIGQKIQGLLPKLAPRTDY [K16C]	8 to 16	8 to 16	8	8	4	8	4	–	–	–	–	–	–	–	–	–	–	–
GLRKRLRKFRNKIKEDLKKIGQKIQGLLPKLAPRTDY [K16D]	4	4	4	4	2	8	2	–	–	–	–	–	–	–	–	–	–	–
GLRKRLRKFRNKIKEKDKKIGQKIQGLLPKLAPRTDY [L17D]	≥64	≥64	≥64	≥64	≥64	≥64	≥64	–	–	–	–	–	–	–	–	–	–	–
GLRKRLRKFRNKIKEKLKKIGQKDQGLLPKLAPRTDY [I24D]	≥64	≥64	≥64	≥64	16	16	16	–	–	–	–	–	–	–	–	–	–	–
GLRKRLRKFRNKIKEKLKKIGQKIQTLLPKLAPRTDY [G26T]	4 to 8	2 to 4	8	4	4	4	4	–	–	–	–	–	–	–	–	–	–	–
GLRKRLRKFRNKIKEKLKKIGQKNQGLLPKLAPRTDY [I24N]	32	≥64	≥64	16	8	16	8	–	–	–	–	–	–	–	–	–	–	–
GLRKRLRKFRNKIKEKLKKNGQKIQGLLPKLAPRTDY [I20N]	8 to 16	≥64	≥64	16	16	16	8	–	–	–	–	–	–	–	–	–	–	–
GLRKRLRKFRNKIKEKLPKIGQKIQGLLPKLAPRTDY [K18P]	4	32	8	4	2	4	4	–	–	–	–	–	–	–	–	–	–	–
GLRKRLRKFRNKIKEKPKKIGQKIQGLLPKLAPRTDY [L17P]	≥64	≥64	≥64	≥64	≥64	≥64	≥64	–	–	–	–	–	–	–	–	–	–	–
GLRKRLRKFRNKMKEKLKKIGQKIQGLLPKLAPRTDY [I13M]	8	4	8	4	4	8	4	–	–	–	–	–	–	–	–	–	–	–
GLRKRLRKFRNKPKEKLKKIGQKIQGLLPKLAPRTDY [I13P]	16 to 32	≥64	≥64	32	32	32	16	–	–	–	–	–	–	–	–	–	–	–
GLRKRLRKFRNKRKEKLKKIGQKIQGLLPKLAPRTDY [I13R]	16 to 32	32 to 64	≥64	8	32	≥64	16	–	–	–	–	–	–	–	–	–	–	–
GLRKRPRKFRNKIKEKLKKIGQKIQGLLPKLAPRTDY [L6P]	8	64	8	4	4	8	4	–	–	–	–	–	–	–	–	–	–	–
KLRKLFRKLLKLIRKLLR [Cap11-1-18 m^2]	–	–	–	–	–	–	–	8 ^* μg/ml	8 to 16	8	32	8 to 16	8	8 ^* μg/ml	≥32	8	16 to 32	8
